In patent US11840686B2, “Modulation of prekallikrein (PKK) expression” (Ionis Pharmaceuticals, Inc., priority 2013, dated 2023):
Strand notation (5' to 3'): a small letter for the sugar, then the base; units joined by * are phosphorothioate-linked, units joined directly phosphodiester-linked; [ ] holds rarer units or linkages, { } end groups; capitals alone tell only the bases. e = 2'-O-(2-methoxyethyl) (MOE); [5mC] = 5-methylcytosine; d = 2'-deoxy (DNA)

test system: human PKK mRNA; test: Antisense inhibition of human PKK mRNA in HepaRG cells, 5,000 nM (Example 2); type: cell-based; conditions: HepaRG cells, 5,000 nM antisense oligonucleotide; 5-10-5 gapmers; Table 16
In short: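 HepaRG cells, 20,000 per well, were electroporated with 5,000 nM MOE gapmer (phosphorothioate, 5-methylcytosine) and incubated about 24 hours. PKK mRNA was quantified by qRT-PCR with primer probe set RTS3454, normalized to RIBOGREEN total RNA, and expressed as percent inhibition versus untreated controls.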

**Q.** How did the “% inhibition” value turn out when “546529 (eG*e[5mC]*eA*e[5mC]*e[5mC]*dT*dG*dG*d[5mC]*dA*dG*dA*dA*d[5mC]*dA*eG*eT*eA*e[5mC]*e[5mC]; antisense) [compound 546529]” was run?
**A.** 65%

**Q.** For “546578 (eG*eA*e[5mC]*eA*eG*dT*dG*dG*dG*d[5mC]*d[5mC]*dA*dG*dA*dG*e[5mC]*e[5mC]*eT*eT*eG; antisense) [compound 546578]”, which “% inhibition” value is on record?
**A.** 73%

same assay, conditions: HepaRG cells, 5,000 nM antisense oligonucleotide; 5-10-5 gapmers; Table 17

**Q.** With “546599 (eA*eA*eG*eA*eG*dT*dA*dA*dG*d[5mC]*d[5mC]*dT*dT*d[5mC]*dA*e[5mC]*eA*eG*eG*eG; antisense) [compound 546599]” as the substance, how does the “% inhibition” value read?
**A.** 82%

**Q.** “546606 (e[5mC]*eT*e[5mC]*eA*e[5mC]*d[5mC]*dA*dG*dA*dG*dT*dT*dG*dT*d[5mC]*e[5mC]*e[5mC]*e[5mC]*eA*eG; antisense) [compound 546606]” was tested. Which “% inhibition” value did it give?
**A.** 0%

same assay, conditions: HepaRG cells, electroporation, 5,000 nM antisense oligonucleotide, approx. 24 hours, primer probe set RTS3454, relative to untreated control cells; Table 12

**Q.** Which “% inhibition” value does the source give for “546409 (eG*eG*eG*eT*eT*dT*d[5mC]*dT*dG*d[5mC]*d[5mC]*dA*dA*d[5mC]*dA*eG*eT*eT*eT*e[5mC]; antisense) [compound 546409]” here?
**A.** 77%

**Q.** With “546411 (eA*eT*eA*eT*eT*dG*dA*d[5mC]*dT*dT*dT*dG*dG*dG*dT*eT*eT*e[5mC]*eT*eG; antisense) [compound 546411]” as the substance, how does the “% inhibition” value read?
**A.** 56%

**Q.** “546416 (e[5mC]*eT*eG*e[5mC]*eA*dG*dG*d[5mC]*dA*dA*dT*dA*dT*dT*dT*eT*eG*e[5mC]*eT*eT; antisense) [compound 546416]” was tested. Which “% inhibition” value did it give?
**A.** 62%

**Q.** For “546418 (eA*eT*eG*eT*eG*dG*d[5mC]*dA*d[5mC]*dT*dG*d[5mC]*dA*dG*dG*e[5mC]*eA*eA*eT*eA; antisense) [compound 546418]”, which “% inhibition” value is on record?
**A.** 72%

**Q.** Which “% inhibition” value does the source give for “546419 (eT*eT*e[5mC]*eT*eA*dA*dT*dG*dT*dG*dG*d[5mC]*dA*d[5mC]*dT*eG*e[5mC]*eA*eG*eG; antisense) [compound 546419]” here?
**A.** 65%

**Q.** “546421 (eT*e[5mC]*eA*eA*eG*d[5mC]*dT*dG*dT*dT*d[5mC]*dT*dA*dA*dT*eG*eT*eG*eG*e[5mC]; antisense) [compound 546421]” was tested. Which “% inhibition” value did it give?
**A.** 71%

**Q.** With “546422 (eA*e[5mC]*eG*eG*eT*d[5mC]*dT*dT*d[5mC]*dA*dA*dG*d[5mC]*dT*dG*eT*eT*e[5mC]*eT*eA; antisense) [compound 546422]” as the substance, how does the “% inhibition” value read?
**A.** 72%

**Q.** How did the “% inhibition” value turn out when “546425 (eG*eG*eT*e[5mC]*eA*dA*dT*d[5mC]*dT*dG*dA*d[5mC]*dT*dA*dG*eT*eG*eA*eA*eT; antisense) [compound 546425]” was run?
**A.** 69%

**Q.** How did the “% inhibition” value turn out when “546426 (eT*e[5mC]*eT*e[5mC]*eT*dG*dG*dT*d[5mC]*dA*dA*dT*d[5mC]*dT*dG*eA*e[5mC]*eT*eA*eG; antisense) [compound 546426]” was run?
**A.** 49%

**Q.** “546432 (eG*eA*e[5mC]*e[5mC]*e[5mC]*d[5mC]*dA*dA*d[5mC]*dA*dG*dA*d[5mC]*dA*dG*e[5mC]*e[5mC]*e[5mC]*eA*e[5mC]; antisense) [compound 546432]” was tested. Which “% inhibition” value did it give?
**A.** 62%

**Q.** “546444 (e[5mC]*e[5mC]*eA*eG*eA*dA*dT*d[5mC]*dA*dT*dG*d[5mC]*d[5mC]*dT*dT*eG*eT*eG*eG*eG; antisense) [compound 546444]” was tested. Which “% inhibition” value did it give?
**A.** 61%

**Q.** For “546447 (eG*eT*e[5mC]*eA*e[5mC]*d[5mC]*dA*dT*dA*dG*dA*d[5mC]*d[5mC]*d[5mC]*dA*eG*eA*eA*eT*e[5mC]; antisense) [compound 546447]”, which “% inhibition” value is on record?
**A.** 68%

**Q.** “546450 (eG*eT*eG*eG*e[5mC]*d[5mC]*d[5mC]*dT*d[5mC]*dT*dT*dA*dA*dG*dT*e[5mC]*eA*e[5mC]*e[5mC]*eA; antisense) [compound 546450]” was tested. Which “% inhibition” value did it give?
**A.** 73%

**Q.** With “546453 (e[5mC]*eT*e[5mC]*eA*eT*dT*dG*dT*dT*dG*dT*dG*dT*dG*dG*e[5mC]*e[5mC]*e[5mC]*eT*e[5mC]; antisense) [compound 546453]” as the substance, how does the “% inhibition” value read?
**A.** 82%

**Q.** “546459 (eG*eT*eA*eG*e[5mC]*d[5mC]*dA*dT*dA*d[5mC]*dA*dT*d[5mC]*dT*dG*eA*eG*eG*eA*eA; antisense) [compound 546459]” was tested. Which “% inhibition” value did it give?
**A.** 46%

**Q.** “546461 (eA*eT*eG*eT*eT*dT*dA*dT*dT*dG*dT*dA*dG*d[5mC]*d[5mC]*eA*eT*eA*e[5mC]*eA; antisense) [compound 546461]” was tested. Which “% inhibition” value did it give?
**A.** 53%

**Q.** How did the “% inhibition” value turn out when “546492 (e[5mC]*eT*e[5mC]*eG*e[5mC]*d[5mC]*dT*dT*dT*dG*dT*dG*dA*d[5mC]*dT*e[5mC]*eG*eA*eT*eT; antisense) [compound 546492]” was run?
**A.** 61%

**Q.** With “546493 (e[5mC]*eA*eT*eA*e[5mC]*dT*d[5mC]*dG*d[5mC]*d[5mC]*dT*dT*dT*dG*dT*eG*eA*e[5mC]*eT*e[5mC]; antisense) [compound 546493]” as the substance, how does the “% inhibition” value read?
**A.** 35%

**Q.** For “546494 (eG*e[5mC]*eA*eT*eA*d[5mC]*dT*d[5mC]*dG*d[5mC]*d[5mC]*dT*dT*dT*dG*eT*eG*eA*e[5mC]*eT; antisense) [compound 546494]”, which “% inhibition” value is on record?
**A.** 67%

**Q.** Which “% inhibition” value does the source give for “546495 (eT*eG*e[5mC]*eA*eT*dA*d[5mC]*dT*d[5mC]*dG*d[5mC]*d[5mC]*dT*dT*dT*eG*eT*eG*eA*e[5mC]; antisense) [compound 546495]” here?
**A.** 65%

**Q.** Which “% inhibition” value does the source give for “546496 (eA*eT*eG*e[5mC]*eA*dT*dA*d[5mC]*dT*d[5mC]*dG*d[5mC]*d[5mC]*dT*dT*eT*eG*eT*eG*eA; antisense) [compound 546496]” here?
**A.** 54%

**Q.** Which “% inhibition” value does the source give for “546497 (e[5mC]*eA*eT*eG*e[5mC]*dA*dT*dA*d[5mC]*dT*d[5mC]*dG*d[5mC]*d[5mC]*dT*eT*eT*eG*eT*eG; antisense) [compound 546497]” here?
**A.** 56%

**Q.** For “546498 (e[5mC]*e[5mC]*eA*eT*eG*d[5mC]*dA*dT*dA*d[5mC]*dT*d[5mC]*dG*d[5mC]*d[5mC]*eT*eT*eT*eG*eT; antisense) [compound 546498]”, which “% inhibition” value is on record?
**A.** 65%

**Q.** How did the “% inhibition” value turn out when “546499 (eT*e[5mC]*e[5mC]*eA*eT*dG*d[5mC]*dA*dT*dA*d[5mC]*dT*d[5mC]*dG*d[5mC]*e[5mC]*eT*eT*eT*eG; antisense) [compound 546499]” was run?
**A.** 20%

**Q.** With “546500 (eT*eT*e[5mC]*e[5mC]*eA*dT*dG*d[5mC]*dA*dT*dA*d[5mC]*dT*d[5mC]*dG*e[5mC]*e[5mC]*eT*eT*eT; antisense) [compound 546500]” as the substance, how does the “% inhibition” value read?
**A.** 46%

**Q.** How did the “% inhibition” value turn out when “546501 (eT*eT*eT*e[5mC]*e[5mC]*dA*dT*dG*d[5mC]*dA*dT*dA*d[5mC]*dT*d[5mC]*eG*e[5mC]*e[5mC]*eT*eT; antisense) [compound 546501]” was run?
**A.** 53%

**Q.** “546502 (eG*eA*eT*eT*eT*dT*d[5mC]*d[5mC]*dA*dT*dG*d[5mC]*dA*dT*dA*e[5mC]*eT*e[5mC]*eG*e[5mC]; antisense) [compound 546502]” was tested. Which “% inhibition” value did it give?
**A.** 37%

**Q.** Which “% inhibition” value does the source give for “546503 (eG*eT*eG*eA*eT*dG*d[5mC]*dG*dA*dT*dT*dT*dT*d[5mC]*d[5mC]*eA*eT*eG*e[5mC]*eA; antisense) [compound 546503]” here?
**A.** 53%

**Q.** How did the “% inhibition” value turn out when “546508 (eG*e[5mC]*eA*eG*e[5mC]*dA*dA*dG*dT*dG*d[5mC]*dT*d[5mC]*d[5mC]*d[5mC]*e[5mC]*eA*eT*eG*e[5mC]; antisense) [compound 546508]” was run?
**A.** 43%

**Q.** For “546511 (eG*eT*eG*eA*eT*dG*dA*dA*dA*dG*dT*dA*d[5mC]*dA*dG*e[5mC]*eA*eG*e[5mC]*eA; antisense) [compound 546511]”, which “% inhibition” value is on record?
**A.** 50%

**Q.** Which “% inhibition” value does the source give for “546683 (eT*e[5mC]*e[5mC]*eT*eA*dT*d[5mC]*d[5mC]*dG*dT*dG*dT*dT*d[5mC]*dA*eG*e[5mC]*eT*eG*eT; antisense) [compound 546683]” here?
**A.** 69%

**Q.** How did the “% inhibition” value turn out when “546684 (eT*eA*e[5mC]*eT*e[5mC]*dT*d[5mC]*dT*dA*d[5mC]*dA*dT*dA*d[5mC]*dT*e[5mC]*eA*eG*eG*eA; antisense) [compound 546684]” was run?
**A.** 71%

**Q.** With “546687 (eT*eG*eA*eG*eA*d[5mC]*d[5mC]*dT*d[5mC]*d[5mC]*dA*dG*dA*d[5mC]*dT*eA*e[5mC]*eT*eG*eT; antisense) [compound 546687]” as the substance, how does the “% inhibition” value read?
**A.** 76%

**Q.** For “546690 (e[5mC]*eT*e[5mC]*eT*eG*d[5mC]*dT*dG*dG*dT*dT*dT*dT*dA*dG*eA*e[5mC]*e[5mC]*eA*e[5mC]; antisense) [compound 546690]”, which “% inhibition” value is on record?
**A.** 44%

**Q.** “546695 (eG*eG*eG*eA*e[5mC]*dA*dA*dT*d[5mC]*dT*d[5mC]*d[5mC]*dA*d[5mC]*d[5mC]*e[5mC]*e[5mC]*e[5mC]*eG*eA; antisense) [compound 546695]” was tested. Which “% inhibition” value did it give?
**A.** 36%

**Q.** With “546698 (eT*eG*e[5mC]*eA*eG*dA*dG*dT*dG*dT*d[5mC]*dA*dT*d[5mC]*dT*eG*e[5mC]*eG*eA*eA; antisense) [compound 546698]” as the substance, how does the “% inhibition” value read?
**A.** 59%

**Q.** Which “% inhibition” value does the source give for “546700 (eT*eG*eG*eT*eT*d[5mC]*d[5mC]*d[5mC]*dT*dA*dG*d[5mC]*dG*dG*dT*e[5mC]*e[5mC]*eA*eG*eA; antisense) [compound 546700]” here?
**A.** 78%

**Q.** “546705 (e[5mC]*e[5mC]*e[5mC]*e[5mC]*eT*dG*dT*dA*dG*dT*dT*dG*dG*d[5mC]*dT*eG*eT*eG*eG*eT; antisense) [compound 546705]” was tested. Which “% inhibition” value did it give?
**A.** 66%

**Q.** Which “% inhibition” value does the source give for “546707 (eG*e[5mC]*eA*eA*eG*dT*d[5mC]*dA*dA*dA*dG*dA*dG*dT*dG*eT*e[5mC]*e[5mC]*eA*e[5mC]; antisense) [compound 546707]” here?
**A.** 73%

**Q.** “546710 (eG*eA*eA*eG*e[5mC]*d[5mC]*dT*dG*dT*dT*dA*dG*dA*dG*dT*eT*eG*eG*e[5mC]*e[5mC]; antisense) [compound 546710]” was tested. Which “% inhibition” value did it give?
**A.** 73%

**Q.** For “546719 (e[5mC]*e[5mC]*e[5mC]*e[5mC]*e[5mC]*dA*dT*dG*dT*d[5mC]*d[5mC]*dA*dT*dG*dG*eA*e[5mC]*eT*eT*eT; antisense) [compound 546719]”, which “% inhibition” value is on record?
**A.** 55%

same assay, conditions: Table 13; human PKK mRNA in HepaRG cells; 5-10-5 gapmers

**Q.** How did the “% inhibition” value turn out when “546732 (eG*eG*eA*eT*eT*dT*dG*dG*d[5mC]*d[5mC]*d[5mC]*dT*dG*dA*dG*e[5mC]*e[5mC]*e[5mC]*e[5mC]*eA; antisense) [compound 546732]” was run?
**A.** 14%
